Experimental data as given in PMC10860144, “Exploring the Dispersion and Electrostatic Components in Arene–Arene Interactions between Ligands and G4 DNA to Develop G4-Ligands” (Journal of Medicinal Chemistry, 2024).
pKd: −log10 of the molar value. ≈ marks a conversion by molar mass, not a printed value.

Columns and labels:
Solubility at pH 7.4 = type: physicochemical
Method: Physicochemical properties
The Physicochemical profiling (LogD, Solubility, Caco-2 cell permeability) was performed as previously
described.8 Cell viability was performed as described below.
Table S2. Pharmacokinetic Properties
Compound Structure logD, Solubility, Rat hepsa Human mics b

c-MYC Pu22 G4 DNA [1] = test: FRET melting assay, c-MYC Pu22 G4 DNA; type: binding, human; conditions: c-MYC Pu22 G4 DNA 0.2 μM; for increased thermal stability (ΔTm): 40 equivalences of added compound
Excerpt: The synthesized compounds (2–11) were first analyzed using a Förster resonance energy transfer (FRET) assay (Figure 2A). This assay measures the compounds’ ability to affect the thermal stability of fluorescently labeled DNA, in this case, the c-MYC Pu22 G4 DNA (Table S1). […] The addition of one methyl group to the quinazoline core (3) provides almost twice as strong thermal stability compared to 2. The addition of a second methyl group (4) further increased stabilization, albeit modestly (by 0.5 °C). This slight increase between 3 and 4 could stem from the suboptimal positioning of the added methyl substituent in relation to the guanines on the G4 surface, compared to other positions on the quinazoline ring. […] Furthermore, the methyl-substituted (4) and the methoxy-substituted (6) display a similar G4 stabilization despite the strong electrostatic character of the methoxy substituent compared to the neutral methyl group, which further supports that these interactions are dispersion-driven. This conclusion is further supported by the fact that the replacement of the methoxy group in 6 with chlorine in 7 results in a very similar stabilization as 3, 4, and 6.
Synthetic labeled oligonucleotides for the FRET study were purchased from Eurofins Genomics. Stock solutions were prepared in MQ-water at 100 μM concentration. The sequences used are listed in Supporting Information Table S1. All the oligonucleotides except Pu22 were prefolded in 10 mM lithium cacodylate buffer (pH 7.4), with 10 mM KCl and 90 mM LiCl by heating for 10 min at 95 °C and then cooling in fridge for at least 1 h. Pu22 was folded in 10 mM lithium cacodylate buffer (pH 7.4), with 2 mM KCl and 98 mM LiCl.
The FRET occurs between two dyes (5′-FAM as donor and 3′-TAMRA as acceptor) linked at both extremities of a DNA oligonucleotide. When the oligonucleotides are folded into G4 structures, the donor and acceptor are in proximity, which results in an energy transfer from the donor to the acceptor. This process can be detected by a reduction in the fluorescence emission of the donor. Fluorescence emission of the donor is recovered when the temperature increment triggers the thermal denaturation of the G4 structure. The experiments were performed in a Bio-Rad CFX96 real-time PCR device at temperatures from 10 to 95 °C at 1.5 °C/m heating rate using a 492 nm excitation wavelength and a 516 nm detection wavelength in 96-well plates. […] The stabilization (ΔTm) is calculated from comparison of Tm of the fluorescently labeled oligonucleotide in the presence or absence of the ligand. […]
The fluorescence resonance energy transfer (FRET) occurs between two dyes (5'-FAM as donor and 3'- TAMRA as acceptor) linked at both extremities of a DNA oligonucleotide. […]

c-MYC Pu22 G4 DNA [2] = test: Microscale thermophoresis (MST), c-MYC Pu22 G4 DNA; type: binding, human; conditions: Cy5-labeled c-MYC Pu22 G4 DNA 25 nM; pH 7.4, 100 mM KCl; read-out: apparent Kd (MST)
Method: To evaluate the apparent binding affinities (Kd) for the compound series, we next used microscale thermophoresis (MST) with fluorescently labeled c-MYC Pu22 G4 DNA (Table S1). Overall, the measured MST binding results for compounds 2–11 corresponded well with the results from the FRET assay (Figures 2B and S3).
5′-Cy5 labeled G4 DNAs for this study were purchased from Eurofins Genomics. Stock solutions were prepared in water at 100 μM concentration. The sequences used are listed in Supporting Information Table S1. The G4 DNA sequences were folded in KCl buffer (10 mM phosphate, 100 mM KCl, pH 7.4) by heating at 95 °C for 5 min and then cooling to room temperature. All the experiments were performed in 10 mM phosphate pH 7.4, 100 mM KCl, and 0.05% Tween20. The labeled DNA concentration is held constant at 25 nM, and ligand concentration is varied depending on ligands Kd (16 1:3 dilutions). The samples were loaded into standard MST graded glass capillaries and initial fluorescence intensity of the capillary was measured using Monolith NT.115 (Nano Temper, Germany) with 20% LED power. The change in fluorescence with ligand’s concentrations were plotted in Excel and fitted through nonlinear equation to obtain the binding constants. […]
Microscale Thermophoresis (MST)
5'- Cy5 labelled G4 DNAs for this study were purchased from Eurofins Genomics. Stock solutions were prepared in water at […] concentration. The sequences used are listed in supplementary Table S1. The G4 DNA sequences were folded in KCl buffer (10 mM phosphate, 100 mM KCl, pH 7.4) by heating at 95 °C for 5 min and then cooling to room temperature. All the experiments were performed in 10 mM phosphate pH 7.4, 100 mM KCl, 0.05% Tween20. The labelled DNA concentration is held constant at 25 nM and ligand concentration is varied depending on ligands Kd (sixteen 1:3 dilutions). The samples were loaded into standard MST graded glass capillaries and initial fluorescence intensity of the capillary were measured using Monolith NT.115 (Nano Temper, Germany) with 20% LED power. The change in fluorescence with ligand's concentrations were plotted in Excel and fitted through non-linear equation to obtain the binding constants.
(1 picture or pasted object on this page, not shown here)

SMILES: Cc1cc(NCCCN(C)C)nc(Nc2ncc3ccccc3n2)n1 [Compound 2, N4-(3-(Dimethylamino)propyl)-6-methyl-N2-(quinazolin-2-yl)pyrimidine-2,4-diamine]
- solubility (Solubility at pH 7.4): > 1000 µM
- increased thermal stability (ΔTm) (c-MYC Pu22 G4 DNA [1]): 7.5 °C
- pKd (c-MYC Pu22 G4 DNA [2]): 5.85

SMILES: Cc1cc(C)c2nc(Nc3nc(C)cc(NCCCN(C)C)n3)nc(C)c2c1 [Compound 5, N4-(3-(Dimethylamino)propyl)-6-methyl-N2-(4,6,8-trimethylquinazolin-2-yl)pyrimidine-2,4-diamine]
- solubility (Solubility at pH 7.4): 962 µM (≈ 365 µg/mL)
- increased thermal stability (ΔTm) (c-MYC Pu22 G4 DNA [1]): 20 °C
- pKd (c-MYC Pu22 G4 DNA [2]): 7.30

SMILES: Cc1cc(C)c2nc(Nc3nc(C)cc(C)n3)nc(C)c2c1 [Compound 27, N-(4,6-Dimethylpyrimidin-2-yl)-4,6,8-trimethylquinazolin-2-amine]
- solubility (Solubility at pH 7.4): 264 µM (≈ 77.5 µg/mL)
- increase in thermal stability (ΔTm) (c-MYC Pu22 G4 DNA [1]; compound 8 μM): 12 °C
- pKd (c-MYC Pu22 G4 DNA [2]): 6.10
